Experimental data reported in BindingDB's records for doi:10.1016/j.bmcl.2008.02.009 (Novartis Institutes For Biomedical Research, 2008).

Columns and labels:
[1] = target: T1, Farnesyl pyrophosphate synthase (Homo sapiens, UniProt P14324); experiment: Inhibition of human FPPS
T1 sequence (P14324 whole entry): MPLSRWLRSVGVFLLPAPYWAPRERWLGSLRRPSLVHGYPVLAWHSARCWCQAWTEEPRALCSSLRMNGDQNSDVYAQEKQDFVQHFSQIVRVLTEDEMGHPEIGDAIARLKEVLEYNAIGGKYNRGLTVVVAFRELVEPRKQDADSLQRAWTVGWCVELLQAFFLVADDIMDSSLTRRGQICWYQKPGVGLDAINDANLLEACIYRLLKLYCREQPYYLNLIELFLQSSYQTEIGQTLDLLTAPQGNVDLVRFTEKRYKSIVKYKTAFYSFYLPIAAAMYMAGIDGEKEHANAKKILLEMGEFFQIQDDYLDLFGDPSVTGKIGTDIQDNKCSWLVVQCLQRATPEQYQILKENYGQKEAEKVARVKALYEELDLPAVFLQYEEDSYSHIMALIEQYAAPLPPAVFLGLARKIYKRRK

Isoprenyl transferase = target: T2, Isoprenyl transferase (Streptococcus pneumoniae serotype 4 (strain ATCC BAA-334 / TIGR4), UniProt Q97SR4); experiment: Inhibition of Streptococcus pneumoniae UPPS
T2 sequence (Q97SR4 whole entry): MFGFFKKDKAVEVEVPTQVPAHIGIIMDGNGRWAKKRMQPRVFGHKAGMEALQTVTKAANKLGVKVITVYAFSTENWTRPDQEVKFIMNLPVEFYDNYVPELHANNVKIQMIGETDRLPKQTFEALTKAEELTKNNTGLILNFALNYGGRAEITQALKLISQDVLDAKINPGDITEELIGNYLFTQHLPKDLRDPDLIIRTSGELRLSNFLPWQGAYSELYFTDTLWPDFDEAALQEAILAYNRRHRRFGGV

| IC50 [1] [µM] | IC50 (Isoprenyl transferase) [µM] | SMILES |
| --- | --- | --- |
| > 50 | 0.11 | O=C1CC(Cc2ccccc2)NC(=O)C1C(=O)Nc1ccc(N2CCCCC2)cc1 (stereo unspecified) |
|  | 1.1 | O=C(Nc1ccc(-c2ccccc2)cc1)C1C(=O)OC(Cc2ccccc2)C1=O (stereo unspecified) |
| > 50 | 0.11 | O=C1CC(Cc2ccccc2)NC(=O)C1C(=O)Nc1ccc(Oc2ccccc2)cc1 (stereo unspecified) |
|  | 1.1 | O=C1CC(Cc2ccccc2)NC(=O)C1C(=O)Nc1ccc(Nc2ccccc2)cc1 (stereo unspecified) |
